Source: ChEMBL document CHEMBL6096693, “Fragment-to-Lead Medicinal Chemistry Publications in 2023” (J Med Chem, 2025)

Experiments:
[1] = target: Epidermal growth factor receptor (Homo sapiens, UniProt P00533); test: Inhibition of EGFR (unknown origin)
[2] = Binding affinity to Interleukin-1beta (unknown origin) assessed as dissociation constant by SPR analysis; set-up: species or system Homo sapiens
[3] = target: Bifunctional dihydrofolate reductase-thymidylate synthase (Plasmodium falciparum K1, UniProt P13922); test: Binding affinity to Plasmodium falciparum DHFR assessed as inhibition constant
Sequence of Bifunctional dihydrofolate reductase-thymidylate synthase (P13922 whole entry): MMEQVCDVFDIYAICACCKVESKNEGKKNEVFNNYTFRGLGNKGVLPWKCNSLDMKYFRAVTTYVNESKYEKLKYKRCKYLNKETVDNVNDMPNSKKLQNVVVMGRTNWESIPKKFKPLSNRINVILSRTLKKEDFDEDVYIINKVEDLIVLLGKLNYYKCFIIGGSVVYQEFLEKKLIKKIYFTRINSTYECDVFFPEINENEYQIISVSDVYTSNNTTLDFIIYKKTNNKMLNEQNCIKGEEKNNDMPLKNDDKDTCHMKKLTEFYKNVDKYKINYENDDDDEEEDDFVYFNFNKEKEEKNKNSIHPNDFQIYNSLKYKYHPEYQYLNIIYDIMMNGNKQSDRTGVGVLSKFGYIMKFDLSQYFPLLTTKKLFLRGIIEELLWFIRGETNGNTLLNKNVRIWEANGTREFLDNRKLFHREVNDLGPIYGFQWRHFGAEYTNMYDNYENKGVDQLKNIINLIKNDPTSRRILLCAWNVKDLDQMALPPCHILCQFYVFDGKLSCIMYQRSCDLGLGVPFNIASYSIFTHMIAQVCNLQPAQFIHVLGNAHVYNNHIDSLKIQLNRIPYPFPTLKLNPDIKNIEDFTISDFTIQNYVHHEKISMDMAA

[4] = target: Bromodomain-containing protein 4 (Homo sapiens, UniProt O60885); test: Inhibition of BRD4 BD1 (unknown origin) using biotinylated tetra-acetylated H4 peptide SGRG-K(Ac)-GG-K(Ac)-GLG-K(Ac)-GGA-K(Ac)-RHRK-Biotin as substrate incubated for 60 mins by TR-FRET analysis
Coagulation factor XII = target: T1, Coagulation factor XII (Homo sapiens, UniProt P00748); test: Inhibition of human FXIIa (unknown origin)
T1 sequence (P00748 whole entry): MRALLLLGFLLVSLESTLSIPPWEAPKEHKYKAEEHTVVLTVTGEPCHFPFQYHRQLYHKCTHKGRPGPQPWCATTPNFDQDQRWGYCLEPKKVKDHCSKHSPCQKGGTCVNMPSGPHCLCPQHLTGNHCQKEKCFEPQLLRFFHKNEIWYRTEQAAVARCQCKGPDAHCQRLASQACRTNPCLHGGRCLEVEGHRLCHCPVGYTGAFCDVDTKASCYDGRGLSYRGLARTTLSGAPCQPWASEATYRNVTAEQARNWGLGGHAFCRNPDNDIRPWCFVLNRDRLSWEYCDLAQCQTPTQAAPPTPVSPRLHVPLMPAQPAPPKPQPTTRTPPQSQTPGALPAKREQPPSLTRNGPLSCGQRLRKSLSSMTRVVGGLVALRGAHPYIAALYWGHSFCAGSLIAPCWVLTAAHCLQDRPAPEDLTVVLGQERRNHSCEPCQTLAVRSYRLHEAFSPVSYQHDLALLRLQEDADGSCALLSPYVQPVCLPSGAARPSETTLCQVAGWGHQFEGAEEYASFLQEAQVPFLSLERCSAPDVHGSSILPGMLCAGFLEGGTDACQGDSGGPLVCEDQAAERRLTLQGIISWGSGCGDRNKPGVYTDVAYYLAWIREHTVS

[5] = Inhibition of SARS-CoV2 Mac1 extracted from Escherichia coli Rosetta2 (DE3); set-up: species or system Severe acute respiratory syndrome coronavirus 2
[6] = target: T2, ATPase family AAA domain-containing protein 2 (Homo sapiens, UniProt Q6PL18); test: Inhibition of recombinant ATAD2 bromodomain (unknown origin) by TR-FRET assay
T2 sequence (Q6PL18 whole entry): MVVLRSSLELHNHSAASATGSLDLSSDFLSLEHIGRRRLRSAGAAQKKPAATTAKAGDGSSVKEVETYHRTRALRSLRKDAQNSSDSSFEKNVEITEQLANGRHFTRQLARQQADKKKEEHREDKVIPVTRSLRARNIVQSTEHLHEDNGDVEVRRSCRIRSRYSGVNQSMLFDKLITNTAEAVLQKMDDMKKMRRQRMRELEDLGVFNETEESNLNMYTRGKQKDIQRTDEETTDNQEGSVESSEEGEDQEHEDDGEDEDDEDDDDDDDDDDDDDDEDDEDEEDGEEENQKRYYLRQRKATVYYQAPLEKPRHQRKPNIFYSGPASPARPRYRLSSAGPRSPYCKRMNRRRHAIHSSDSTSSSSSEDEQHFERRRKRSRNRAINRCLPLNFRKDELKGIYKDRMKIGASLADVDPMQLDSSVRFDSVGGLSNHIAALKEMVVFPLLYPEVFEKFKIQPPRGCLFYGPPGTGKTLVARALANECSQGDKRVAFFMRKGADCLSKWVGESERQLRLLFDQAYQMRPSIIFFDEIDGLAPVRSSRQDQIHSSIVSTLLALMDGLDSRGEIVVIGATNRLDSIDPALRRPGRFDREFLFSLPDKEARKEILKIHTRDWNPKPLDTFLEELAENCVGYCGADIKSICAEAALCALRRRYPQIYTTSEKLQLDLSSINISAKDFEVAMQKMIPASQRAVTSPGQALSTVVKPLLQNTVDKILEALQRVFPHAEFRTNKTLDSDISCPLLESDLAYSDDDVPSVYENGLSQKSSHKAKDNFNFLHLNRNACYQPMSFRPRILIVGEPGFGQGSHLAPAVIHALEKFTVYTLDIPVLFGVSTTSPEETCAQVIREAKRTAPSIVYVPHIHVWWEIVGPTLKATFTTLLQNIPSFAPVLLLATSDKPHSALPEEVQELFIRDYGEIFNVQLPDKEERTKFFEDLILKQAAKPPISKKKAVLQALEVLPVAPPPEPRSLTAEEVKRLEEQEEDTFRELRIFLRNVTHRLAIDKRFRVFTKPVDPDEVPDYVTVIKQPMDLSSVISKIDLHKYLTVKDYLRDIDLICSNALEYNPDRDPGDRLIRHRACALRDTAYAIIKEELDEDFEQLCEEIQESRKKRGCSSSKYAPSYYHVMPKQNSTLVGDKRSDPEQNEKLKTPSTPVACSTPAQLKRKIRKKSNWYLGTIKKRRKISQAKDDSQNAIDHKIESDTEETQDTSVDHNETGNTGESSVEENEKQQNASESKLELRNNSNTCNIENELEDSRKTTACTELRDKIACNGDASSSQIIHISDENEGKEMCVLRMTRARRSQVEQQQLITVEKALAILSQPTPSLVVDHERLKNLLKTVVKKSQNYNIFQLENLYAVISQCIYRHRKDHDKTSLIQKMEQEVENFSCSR

Sequence of Epidermal growth factor receptor (P00533 whole entry): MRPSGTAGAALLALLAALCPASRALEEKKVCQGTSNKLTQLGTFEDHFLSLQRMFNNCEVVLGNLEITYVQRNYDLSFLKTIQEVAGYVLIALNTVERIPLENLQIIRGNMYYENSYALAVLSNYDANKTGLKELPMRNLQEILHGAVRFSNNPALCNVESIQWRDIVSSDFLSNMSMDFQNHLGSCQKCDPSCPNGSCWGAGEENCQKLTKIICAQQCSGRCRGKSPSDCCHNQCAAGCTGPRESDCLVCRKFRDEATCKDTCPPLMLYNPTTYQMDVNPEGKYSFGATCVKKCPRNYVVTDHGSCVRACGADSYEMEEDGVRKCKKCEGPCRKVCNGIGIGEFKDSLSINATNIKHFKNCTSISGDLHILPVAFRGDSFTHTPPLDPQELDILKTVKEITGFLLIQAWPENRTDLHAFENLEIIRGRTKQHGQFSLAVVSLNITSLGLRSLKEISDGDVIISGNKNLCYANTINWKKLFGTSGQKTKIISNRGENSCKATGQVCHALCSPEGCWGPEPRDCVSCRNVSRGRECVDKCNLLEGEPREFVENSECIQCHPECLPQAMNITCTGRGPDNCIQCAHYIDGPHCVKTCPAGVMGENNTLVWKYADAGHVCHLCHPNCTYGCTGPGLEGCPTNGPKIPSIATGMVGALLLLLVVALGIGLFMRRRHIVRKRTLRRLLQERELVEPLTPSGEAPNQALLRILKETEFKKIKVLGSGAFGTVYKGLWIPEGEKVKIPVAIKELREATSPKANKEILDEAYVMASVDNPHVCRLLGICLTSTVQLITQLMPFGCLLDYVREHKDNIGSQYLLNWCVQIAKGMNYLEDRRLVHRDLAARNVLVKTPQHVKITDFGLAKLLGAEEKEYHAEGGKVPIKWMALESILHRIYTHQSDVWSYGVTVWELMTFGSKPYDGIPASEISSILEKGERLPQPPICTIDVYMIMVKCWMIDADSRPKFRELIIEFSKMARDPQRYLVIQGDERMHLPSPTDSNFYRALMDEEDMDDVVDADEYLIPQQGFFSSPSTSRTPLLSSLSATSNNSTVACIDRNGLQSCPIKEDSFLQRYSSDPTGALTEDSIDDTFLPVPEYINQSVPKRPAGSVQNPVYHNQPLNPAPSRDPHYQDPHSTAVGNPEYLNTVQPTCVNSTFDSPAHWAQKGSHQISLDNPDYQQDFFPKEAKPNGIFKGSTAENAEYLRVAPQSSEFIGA

With `C=CC(=O)Nc1ccccn1` as the molecule, how does the IC50 [1] read?
Its IC50 is > 500 µM.

For `O=C1Nc2cc(C(F)(F)F)ccc2C1(O)c1cc(Cl)ccc1O` (configuration not stated), which Kd [2] is on record?
The Kd was 520 µM.

Which Ki [3] does the source give for `O=C(O)c1cccc(-c2ccncc2)c1` here?
The Ki was > 500 µM.

Which IC50 [4] does the source give for `O=C(O)c1cc(-c2c[nH]c3ccccc23)on1` here?
Its IC50 is 97 µM.

Which IC50 [1] does the source give for `C=CC(=O)Nc1cc(-c2cn(C)c3ccccc23)ncn1` here?
Its IC50 is 0.9 µM.

With `Cc1ccc2c(c1)NC(=O)[C@@]2(c1cn[nH]c1)c1cc(-c2ccc(C(=O)O)cc2C(=O)O)ccc1O` as the molecule, how does the Kd [2] read?
Its Kd is 1.1 µM.

Which IC50 [4] does the source give for `Cn1cc(-c2onc(C(=O)O)c2CO)c2ccccc21` here?
The IC50 was 0.91 µM.

For `O=C(Nc1ccc(C(=O)N[C@H]2c3cccc(O)c3C[C@H]2C(=O)O)cc1)NC1CC1`, which IC50 (Coagulation factor XII) is on record?
Its IC50 is 390 µM.

And the IC50 [5]?
Its IC50 is > 180 µM.

With `Cc1cc(C)on1` as the molecule, how does the IC50 [4] read?
Its IC50 is 84 µM.

For `CCNC(=O)[C@H](C)NC(=O)Cn1cc(-c2c(C)noc2C)cn1`, which IC50 [4] is on record?
Its IC50 is 0.05 µM.

Which IC50 [6] does the source give for `Cn1c(=O)c2[nH]cnc2n(C)c1=O` [THEOPHYLLINE ANHYDROUS] here?
Its IC50 is 320 µM.
